US9290777B2, “Putative cytokinin receptor and methods for use thereof” (NATIONAL UNIVERSITY OF SINGAPORE, priority 2007, dated 2016)
Entries after “also recorded” stand apart in the source; their conditions may differ.

Tested on: STM
Test: qRT-PCR of cytokinin responsive gene after BA pulse, fold change vs untreated wild type
Assay type: cell-based, Arabidopsis thaliana

c1ccc(CNc2ncnc3nc[nH]c23)cc1 [benzyladenine]
STM transcripts in OE lines compared to untreated wild type (5 μM BA, 1 h, OE lines (e.g. OE1, OE12), listed as BA): less than a two fold change; also recorded: no significant difference | STM fold change (BA 0.01 μM, 5 min, AS1, ↑ up): 3.23↑ | STM fold change (BA 0.01 μM, 5 min, AS8, ↑ up): 5.2↑ | STM fold change (BA 0.01 μM, 5 min, AS21, ↑ up): 7.1↑ | STM fold change (BA 0.01 μM, 5 min, OE1, ↓ down): 3.41↓ | STM fold change (BA 0.01 μM, 5 min, OE12, ↓ down): 4.97↓ | STM fold change (BA 0.01 μM, 5 min, OE18, ↓ down): 6.23↓ | STM fold change (BA 0.01 μM, 5 min, Wild type, ↑ up): 2.45↑ | STM fold change (BA 0.01 μM, 15 min, AS1, ↑ up): 3.67↑ | STM fold change (BA 0.01 μM, 15 min, AS8, ↑ up): 5.58↑ | STM fold change (BA 0.01 μM, 15 min, AS21, ↑ up): 7.48↑ | STM fold change (BA 0.01 μM, 15 min, OE1, ↓ down): 3.23↓ | STM fold change (BA 0.01 μM, 15 min, OE12, ↓ down): 4.65↓ | STM fold change (BA 0.01 μM, 15 min, OE18, ↓ down): 6.02↓ | STM fold change (BA 0.01 μM, 15 min, Wild type, ↑ up): 2.54↑ | STM fold change (BA 0.01 μM, 30 min, AS1, ↑ up): 3.91↑ | STM fold change (BA 0.01 μM, 30 min, AS8, ↑ up): 5.95↑ | STM fold change (BA 0.01 μM, 30 min, AS21, ↑ up): 7.69↑ | STM fold change (BA 0.01 μM, 30 min, OE1, ↓ down): 3.01↓ | STM fold change (BA 0.01 μM, 30 min, OE12, ↓ down): 4.31↓ | STM fold change (BA 0.01 μM, 30 min, OE18, ↓ down): 5.91↓ | STM fold change (BA 0.01 μM, 30 min, Wild type, ↑ up): 3.01↑ | STM fold change (BA 0.01 μM, 1 h, AS1, ↑ up): 4.1↑ | STM fold change (BA 0.01 μM, 1 h, AS8, ↑ up): 6.06↑ | STM fold change (BA 0.01 μM, 1 h, AS21, ↑ up): 8.05↑ | STM fold change (BA 0.01 μM, 1 h, OE1, ↓ down): 2.81↓ | STM fold change (BA 0.01 μM, 1 h, OE12, ↓ down): 3.96↓ | STM fold change (BA 0.01 μM, 1 h, OE18, ↓ down): 5.82↓ | STM fold change (BA 0.01 μM, 1 h, Wild type, ↑ up): 3.2↑ | STM fold change (BA 0.1 μM, 5 min, AS1, ↑ up): 4.24↑ | STM fold change (BA 0.1 μM, 5 min, AS8, ↑ up): 6.22↑ | STM fold change (BA 0.1 μM, 5 min, AS21, ↑ up): 8.21↑ | STM fold change (BA 0.1 μM, 5 min, OE1, ↓ down): 3.2↓ | STM fold change (BA 0.1 μM, 5 min, OE12, ↓ down): 3.81↓ | STM fold change (BA 0.1 μM, 5 min, OE18, ↓ down): 5.79↓ | STM fold change (BA 0.1 μM, 5 min, Wild type, ↑ up): 3.56↑ | STM fold change (BA 0.1 μM, 15 min, AS1, ↑ up): 4.49↑ | STM fold change (BA 0.1 μM, 15 min, AS8, ↑ up): 6.39↑ | STM fold change (BA 0.1 μM, 15 min, AS21, ↑ up): 8.36↑ | STM fold change (BA 0.1 μM, 15 min, OE1, ↓ down): 3.14↓ | STM fold change (BA 0.1 μM, 15 min, OE12, ↓ down): 3.73↓ | STM fold change (BA 0.1 μM, 15 min, OE18, ↓ down): 5.61↓ | STM fold change (BA 0.1 μM, 15 min, Wild type, ↑ up): 3.68↑ | STM fold change (BA 0.1 μM, 30 min, AS1, ↑ up): 4.79↑ | STM fold change (BA 0.1 μM, 30 min, AS8, ↑ up): 6.63↑ | STM fold change (BA 0.1 μM, 30 min, AS21, ↑ up): 8.58↑ | STM fold change (BA 0.1 μM, 30 min, OE1, ↓ down): 2.92↓ | STM fold change (BA 0.1 μM, 30 min, OE12, ↓ down): 3.49↓ | STM fold change (BA 0.1 μM, 30 min, OE18, ↓ down): 5.34↓ | STM fold change (BA 0.1 μM, 30 min, Wild type, ↑ up): 3.85↑ | STM fold change (BA 0.1 μM, 1 h, AS1, ↑ up): 4.97↑ | STM fold change (BA 0.1 μM, 1 h, AS8, ↑ up): 6.94↑ | STM fold change (BA 0.1 μM, 1 h, AS21, ↑ up): 8.87↑ | STM fold change (BA 0.1 μM, 1 h, OE1, ↓ down): 2.76↓ | STM fold change (BA 0.1 μM, 1 h, OE12, ↓ down): 3.01↓ | STM fold change (BA 0.1 μM, 1 h, OE18, ↓ down): 5.01↓ | STM fold change (BA 0.1 μM, 1 h, Wild type, ↑ up): 3.96↑ | STM fold change (BA 1.0 μM, 5 min, AS1, ↑ up): 5.53↑ | STM fold change (BA 1.0 μM, 5 min, AS8, ↑ up): 7.8↑ | STM fold change (BA 1.0 μM, 5 min, AS21, ↑ up): 8.89↑ | STM fold change (BA 1.0 μM, 5 min, OE1, ↓ down): 2.86↓ | STM fold change (BA 1.0 μM, 5 min, OE12, ↓ down): 2.89↓ | STM fold change (BA 1.0 μM, 5 min, OE18, ↓ down): 4.26↓ | STM fold change (BA 1.0 μM, 5 min, Wild type, ↑ up): 4.11↑ | STM fold change (BA 1.0 μM, 15 min, AS1, ↑ up): 5.78↑ | STM fold change (BA 1.0 μM, 15 min, AS8, ↑ up): 7.93↑ | STM fold change (BA 1.0 μM, 15 min, AS21, ↑ up): 9.02↑ | STM fold change (BA 1.0 μM, 15 min, OE1, ↓ down): 2.61↓ | STM fold change (BA 1.0 μM, 15 min, OE12, ↓ down): 2.56↓ | STM fold change (BA 1.0 μM, 15 min, OE18, ↓ down): 4.11↓ | STM fold change (BA 1.0 μM, 15 min, Wild type, ↑ up): 4.36↑ | STM fold change (BA 1.0 μM, 30 min, AS1, ↑ up): 5.83↑ | STM fold change (BA 1.0 μM, 30 min, AS8, ↑ up): 7.99↑ | STM fold change (BA 1.0 μM, 30 min, AS21, ↑ up): 9.25↑ | STM fold change (BA 1.0 μM, 30 min, OE1, ↓ down): 2.39↓ | STM fold change (BA 1.0 μM, 30 min, OE12, ↓ down): 2.87↓ | STM fold change (BA 1.0 μM, 30 min, OE18, ↓ down): 4.01↓ | STM fold change (BA 1.0 μM, 30 min, Wild type, ↑ up): 4.69↑ | STM fold change (BA 1.0 μM, 1 h, AS1, ↑ up): 6.21↑ | STM fold change (BA 1.0 μM, 1 h, AS8, ↑ up): 8.07↑ | STM fold change (BA 1.0 μM, 1 h, AS21, ↑ up): 9.66↑ | STM fold change (BA 1.0 μM, 1 h, OE1, ↓ down): 2.11↓ | STM fold change (BA 1.0 μM, 1 h, OE12, ↓ down): 2.62↓ | STM fold change (BA 1.0 μM, 1 h, OE18, ↓ down): 3.82↓ | STM fold change (BA 1.0 μM, 1 h, Wild type, ↑ up): 4.97↑ | STM fold change (BA 5.0 μM, 5 min, AS1, ↑ up): 6.01↑ | STM fold change (BA 5.0 μM, 5 min, AS8, ↑ up): 8.46↑ | STM fold change (BA 5.0 μM, 5 min, AS21, ↑ up): 9.33↑ | STM fold change (BA 5.0 μM, 5 min, OE1, ↓ down): 2.29↓ | STM fold change (BA 5.0 μM, 5 min, OE12, ↓ down): 2.49↓ | STM fold change (BA 5.0 μM, 5 min, OE18, ↓ down): 3.35↓ | STM fold change (BA 5.0 μM, 5 min, Wild type, ↑ up): 5.62↑ | STM fold change (BA 5.0 μM, 15 min, AS1, ↑ up): 6.21↑ | STM fold change (BA 5.0 μM, 15 min, AS8, ↑ up): 8.63↑ | STM fold change (BA 5.0 μM, 15 min, AS21, ↑ up): 9.44↑ | STM fold change (BA 5.0 μM, 15 min, OE1, ↓ down): 2.11↓ | STM fold change (BA 5.0 μM, 15 min, OE12, ↓ down): 2.13↓ | STM fold change (BA 5.0 μM, 15 min, OE18, ↓ down): 3.28↓ | STM fold change (BA 5.0 μM, 15 min, Wild type, ↑ up): 5.89↑ | STM fold change (BA 5.0 μM, 30 min, AS1, ↑ up): 6.43↑ | STM fold change (BA 5.0 μM, 30 min, Wild type, ↑ up): 5.99↑ | STM transcripts, dose dependence (BA 0.01-5 μM pulse, 5 min-1 h): dose-dependent increase
